# In patent US20070093520A1, “Method of treatment of diarrhea-predominant irritable bowel syndrome in a subject” (priority 2005, published 2007):
# Test system: diarrhea-predominant IBS subjects
# Assay: 3007 Study: open-label 52-week safety study, adverse events and withdrawals
# [1] = Cilansetron 2 mg/Cilansetron 2 mg
smiles,measurement,setting,value
"Cc1nccn1C[C@H]1CCc2c(c3cccc4c3n2CCC4)C1=O [cilansetron, (R)-(−)-4,5,6,8,9,10-hexahydro-10-[(2-methyl-1H-imidazol-1-yl)methyl]-11H-pyrido-[3,2,1-jk]-carbazol-11-one]",TEAE: Vulvovaginal Signs and Symptoms*,C/C group,1 (<1%) n (%)
same,TEAE: Wheezing,C/C group,1 (<1%) n (%)
same,TEAE: Abdominal Discomfort,[1],1 (<1%) n (%)
same,TEAE: Abdominal Distension,[1],9 (4%) n (%)
same,TEAE: Abdominal Pain Aggravated,[1],4 (2%) n (%)
same,TEAE: Abdominal Pain Lower,[1],4 (2%) n (%)
same,TEAE: Abdominal Pain NOS,[1],14 (5%) n (%)
same,TEAE: Abdominal Pain Upper,[1],7 (3%) n (%)
same,TEAE: Abdominal Rebound Tenderness,[1],1 (<1%) n (%)
same,TEAE: Abdominal Tenderness,[1],9 (4%) n (%)
same,TEAE: Abnormal Reflexes,[1],1 (<1%) n (%)
same,TEAE: Alanine Aminotransferase Increased,[1],8 (3%) n (%)
same,TEAE: Anal and Rectal Disorders NEC,[1],0 n (%)
same,TEAE: Anal and Rectal Pains,[1],0 n (%)
same,TEAE: Anal and Rectal Signs and Symptoms,[1],1 (<1%) n (%)
same,TEAE: Animal Bite,[1],0 n (%)
same,TEAE: Appendicitis,[1],1 (<1%) n (%)
same,TEAE: Arthralgia,[1],10 (4%) n (%)
same,TEAE: Arthritis NOS,[1],3 (1%) n (%)
same,TEAE: Arthritis NOS Aggravated,[1],1 (<1%) n (%)
same,TEAE: Arthropathies NEC,[1],5 (2%) n (%)
same,TEAE: Arthropod Bite,[1],1 (<1%) n (%)
same,TEAE: Arthropod Sting,[1],0 n (%)
same,TEAE: Aspartate Aminotransferase Increased,[1],4 (2%) n (%)
same,TEAE: Back Injury NOS,[1],3 (1%) n (%)
same,TEAE: Back Pain,[1],12 (5%) n (%)
same,TEAE: Back Pain Aggravated,[1],2 (<1%) n (%)
same,TEAE: Bacteria Identification and Serology (Excl Mycobacteria),[1],1 (<1%) n (%)
same,TEAE: Bilirubin Urine,[1],1 (<1%) n (%)
same,TEAE: Bladder Infection NOS,[1],0 n (%)
same,TEAE: Blood Alkaline Phosphatase NOS Increased,[1],2 (<1%) n (%)
same,TEAE: Blood Bilirubin Increased,[1],2 (<1%) n (%)
same,TEAE: Blood Cholesterol Increased,[1],11 (4%) n (%)
same,TEAE: Blood Creatine Phosphokinase Increased,[1],19 (7%) n (%)
same,TEAE: Blood Creatine Phosphokinase Mb Increased,[1],1 (<1%) n (%)
same,TEAE: Blood Creatinine Increased,[1],1 (<1%) n (%)
same,TEAE: Blood Glucose Increased,[1],2 (<1%) n (%)
same,TEAE: Blood Potassium Increased,[1],1 (<1%) n (%)
same,TEAE: Blood Pressure Increased,[1],3 (1%) n (%)
same,TEAE: Blood Sodium Increased,[1],1 (<1%) n (%)
same,TEAE: Blood Triglycerides Increased,[1],6 (2%) n (%)
same,TEAE: Blood Uric Acid Increased,[1],2 (<1%) n (%)
same,TEAE: Blood Urine Present,[1],6 (2%) n (%)
same,TEAE: Blood in Stool,[1],4 (2%) n (%)
same,TEAE: Bone Density Decreased,[1],0 n (%)
same,TEAE: Bone Disorder NOS,[1],1 (<1%) n (%)
same,TEAE: Bone Disorders NEC,[1],1 (<1%) n (%)
same,TEAE: Bone Injury,[1],1 (<1%) n (%)
same,TEAE: Bone Spur,[1],0 n (%)
same,TEAE: Bronchitis Acute NOS,[1],2 (<1%) n (%)
same,TEAE: Bronchitis NOS,[1],18 (7%) n (%)
same,TEAE: Bronchopneumonia NOS,[1],0 n (%)
same,TEAE: Bunion,[1],2 (<1%) n (%)
same,TEAE: Bursal Disorders,[1],3 (1%) n (%)
same,TEAE: Bursitis,[1],1 (<1%) n (%)
same,TEAE: Candida Infections,[1],2 (<1%) n (%)
same,TEAE: Candidal Infection NOS,[1],1 (<1%) n (%)
same,TEAE: Carbohydrate Tolerance Analyses (Incl Diabetes),[1],2 (<1%) n (%)
same,TEAE: Cardiac Auscultatory Investigations,[1],1 (<1%) n (%)
same,TEAE: Cardiac Murmur NOS,[1],1 (<1%) n (%)
same,TEAE: Carotid Bruit,[1],0 n (%)
same,TEAE: Carpal Tunnel Syndrome,[1],2 (<1%) n (%)
same,TEAE: Cartilage Disorder NOS,[1],1 (<1%) n (%)
same,TEAE: Cartilage Disorders,[1],1 (<1%) n (%)
same,TEAE: Cellulitis,[1],0 n (%)
same,TEAE: Cervical Spasm,[1],1 (<1%) n (%)
same,TEAE: Change in Bowel Habit NOS,[1],0 n (%)
same,TEAE: Chapped Lips,[1],0 n (%)
same,TEAE: Chest Wall Pain,[1],0 n (%)
same,TEAE: Cholesterol Analyses,[1],11 (4%) n (%)
same,TEAE: Colitis (Excl Infective),[1],0 n (%)
same,TEAE: Colitis Ischaemic,[1],0 n (%)
same,TEAE: Colonic Polyp,[1],1 (<1%) n (%)
same,TEAE: Connective Tissue Disorders (Excl Le),[1],2 (<1%) n (%)
same,TEAE: Constipation,[1],66 (26%) n (%)
same,TEAE: Cystitis NOS,[1],1 (<1%) n (%)
same,TEAE: Dental Disorders NEC,[1],1 (<1%) n (%)
same,TEAE: Dental Infections - Pathogen Class Unspecified,[1],9 (4%) n (%)
same,TEAE: Dental Pain and Sensation Disorders,[1],2 (<1%) n (%)
same,TEAE: Diaphragmatic Hernias,[1],2 (<1%) n (%)
same,TEAE: Diarrhoea (Excl Infective),[1],24 (9%) n (%)
same,TEAE: Diarrhoea Aggravated,[1],3 (1%) n (%)
same,TEAE: Diarrhoea Haemorrhagic,[1],0 n (%)
same,TEAE: Diarrhoea NOS,[1],22 (9%) n (%)
same,TEAE: Disturbances in Consciousness NEC,[1],3 (1%) n (%)
same,TEAE: Diverticulitis NOS,[1],1 (<1%) n (%)
same,TEAE: Diverticulum Inflammations,[1],1 (<1%) n (%)
same,TEAE: Dizziness,[1],4 (2%) n (%)
same,TEAE: Dry Mouth,[1],1 (<1%) n (%)
same,TEAE: Dysarthria,[1],0 n (%)
same,TEAE: Dyskinesias and Movement Disorders NEC,[1],0 n (%)
same,TEAE: Dyspepsia,[1],6 (2%) n (%)
same,TEAE: Dyspepsia Aggravated,[1],2 (<1%) n (%)
same,TEAE: Dyspeptic Signs and Symptoms,[1],10 (4%) n (%)
same,TEAE: ECG Investigations,[1],1 (<1%) n (%)
same,TEAE: Ear Infection NOS,[1],2 (<1%) n (%)
same,TEAE: Ear Infections,[1],2 (<1%) n (%)
same,TEAE: Electrocardiogram Qrs Complex Abnormal,[1],1 (<1%) n (%)
same,TEAE: Electrocardiogram T Wave Inversion,[1],0 n (%)
same,TEAE: Enteritis,[1],0 n (%)
same,TEAE: Epigastric Discomfort,[1],0 n (%)
same,TEAE: Eructation,[1],2 (<1%) n (%)
same,TEAE: Eye Injuries NEC,[1],1 (<1%) n (%)
same,TEAE: Faecal Abnormality NOS,[1],1 (<1%) n (%)
same,TEAE: Faecal Impaction,[1],0 n (%)
same,TEAE: Faecal Incontinence,[1],1 (<1%) n (%)
same,TEAE: Faecal Occult Blood Positive,[1],23 (9%) n (%)
same,TEAE: Faeces Abnormal,[1],2 (<1%) n (%)
same,TEAE: Faeces Hard,[1],1 (<1%) n (%)
same,TEAE: Fibromyalgia,[1],1 (<1%) n (%)
same,TEAE: Flatulence,[1],16 (6%) n (%)
same,"TEAE: Flatulence, Bloating and Distension",[1],23 (9%) n (%)
same,TEAE: Food Poisoning NOS,[1],1 (<1%) n (%)
same,TEAE: Foot Fracture,[1],1 (<1%) n (%)
same,TEAE: Fractures and Dislocations NEC,[1],1 (<1%) n (%)
same,TEAE: Frequent Bowel Movements,[1],1 (<1%) n (%)
same,TEAE: Fungal Infection NOS,[1],2 (<1%) n (%)
same,TEAE: Fungal Infections NEC,[1],4 (2%) n (%)
same,TEAE: Gamma-Glutamyltransferase Increased,[1],5 (2%) n (%)
same,TEAE: Gastric Irritation,[1],1 (<1%) n (%)
same,TEAE: Gastritis (Excl Infective),[1],3 (1%) n (%)
same,TEAE: Gastritis NOS,[1],3 (1%) n (%)
same,TEAE: Gastroenteritis NOS,[1],4 (2%) n (%)
same,TEAE: Gastroenteritis Viral NOS,[1],5 (2%) n (%)
same,TEAE: Gastrointestinal Atonic and Hypomotility Disorders NEC,[1],70 (27%) n (%)
same,TEAE: Gastrointestinal Disorders,[1],134 (52%) n (%)
same,TEAE: Gastrointestinal Disorders NEC,[1],1 (<1%) n (%)
same,TEAE: Gastrointestinal Dyskinetic Disorders,[1],2 (<1%) n (%)
same,TEAE: Gastrointestinal Histopathology Procedures,[1],25 (10%) n (%)
same,TEAE: Gastrointestinal Infections - Pathogen Class Unspecified,[1],4 (2%) n (%)
same,TEAE: Gastrointestinal Inflammatory Disorders NEC,[1],1 (<1%) n (%)
same,TEAE: Gastrointestinal Motility Disorder NOS,[1],2 (<1%) n (%)
same,TEAE: Gastrointestinal Mucosal Dystrophies and Secretion Disorders,[1],1 (<1%) n (%)
same,TEAE: Gastrointestinal Signs and Symptoms NEC,[1],2 (<1%) n (%)
same,TEAE: Gastrointestinal Spastic and Hypermotility Disorders,[1],5 (2%) n (%)
same,TEAE: Gastrointestinal and Abdominal Pains (Excl Oral and Throat),[1],36 (14%) n (%)
same,TEAE: Gingival Abscess,[1],2 (<1%) n (%)
same,TEAE: Gingival Atrophy,[1],1 (<1%) n (%)
same,TEAE: Gingival Disorders NEC,[1],1 (<1%) n (%)
same,TEAE: Gingival Pain,[1],1 (<1%) n (%)
same,TEAE: Gingival Pains,[1],1 (<1%) n (%)
same,TEAE: Gingivitis,[1],0 n (%)
same,TEAE: Gingivitis Infection NOS,[1],1 (<1%) n (%)
same,TEAE: Glucose Urine Present,[1],1 (<1%) n (%)
same,TEAE: Groin Pain,[1],1 (<1%) n (%)
same,TEAE: Haematocrit Decreased,[1],1 (<1%) n (%)
same,TEAE: Haemoglobin Decreased,[1],1 (<1%) n (%)
same,TEAE: Haemorrhoidal Haemorrhage,[1],2 (<1%) n (%)
same,TEAE: Haemorrhoids,[1],4 (2%) n (%)
same,TEAE: Haemorrhoids Aggravated,[1],0 n (%)
same,TEAE: Haemorrhoids and Gastrointestinal Varices (Excl Oesophageal),[1],6 (2%) n (%)
same,TEAE: Halitosis,[1],1 (<1%) n (%)
same,TEAE: Headache NOS,[1],19 (7%) n (%)
same,TEAE: Headache NOS Aggravated,[1],3 (1%) n (%)
same,TEAE: Headaches NEC,[1],25 (10%) n (%)
same,TEAE: Heart Rate Increased,[1],1 (<1%) n (%)
same,TEAE: Heart Rate and Pulse Investigations,[1],1 (<1%) n (%)
same,TEAE: Heat Exhaustion,[1],1 (<1%) n (%)
same,TEAE: Heat Injuries (Excl Thermal Burns),[1],1 (<1%) n (%)
same,TEAE: Helicobacter Pylori Antibody Positive,[1],1 (<1%) n (%)
same,TEAE: Herpes Simplex,[1],2 (<1%) n (%)
same,TEAE: Herpes Simplex Aggravated,[1],1 (<1%) n (%)
same,TEAE: Herpes Viral Infections,[1],3 (1%) n (%)
same,TEAE: Herpes Zoster,[1],0 n (%)
same,TEAE: Hiatus Hernia,[1],2 (<1%) n (%)
same,TEAE: Hyperreflexia,[1],1 (<1%) n (%)
same,TEAE: Hypoaesthesia,[1],1 (<1%) n (%)
same,TEAE: Infected Varicose Vein,[1],1 (<1%) n (%)
same,TEAE: Infections NEC,[1],3 (1%) n (%)
